Experimental data as given in patent publication US6355633B1, “Aryl sulfonic acids and derivatives as FSH antagonists” (American Home Products Corporation, priority 1999, dated 2002).

Assays:
FSH receptor [1] = molecular target: T1, FSH receptor (Homo sapiens, UniProt P23945); assay: FSH Receptor Radioligand Membrane Binding Standard Pharmacological Test Procedure; parameters: expressed in transfected cells; conditions: [125I]FSH binding to membranes of CHO cells stably transfected with the human FSH receptor
T1 sequence (P23945 18-695): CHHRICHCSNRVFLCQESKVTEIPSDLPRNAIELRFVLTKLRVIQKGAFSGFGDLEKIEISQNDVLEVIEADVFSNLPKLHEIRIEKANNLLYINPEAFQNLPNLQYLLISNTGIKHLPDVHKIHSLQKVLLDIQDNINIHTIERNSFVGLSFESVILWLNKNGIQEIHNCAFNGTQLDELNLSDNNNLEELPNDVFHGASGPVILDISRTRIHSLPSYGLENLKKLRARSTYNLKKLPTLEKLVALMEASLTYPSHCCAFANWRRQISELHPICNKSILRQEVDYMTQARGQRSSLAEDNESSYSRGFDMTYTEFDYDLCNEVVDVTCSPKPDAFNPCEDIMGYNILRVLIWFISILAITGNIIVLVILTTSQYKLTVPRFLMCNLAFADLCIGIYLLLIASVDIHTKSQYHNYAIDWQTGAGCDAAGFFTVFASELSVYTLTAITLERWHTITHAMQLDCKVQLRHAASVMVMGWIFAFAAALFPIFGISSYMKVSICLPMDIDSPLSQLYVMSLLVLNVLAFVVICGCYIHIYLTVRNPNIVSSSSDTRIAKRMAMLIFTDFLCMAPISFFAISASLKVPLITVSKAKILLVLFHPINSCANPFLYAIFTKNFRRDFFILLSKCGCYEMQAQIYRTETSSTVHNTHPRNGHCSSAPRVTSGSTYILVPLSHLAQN
Method: FSH Receptor Radioligand Membrane Binding Standard Pharmacological Test Procedure
Membrane Source: Chinese hamster ovarian cells stably transfected with the human FSH receptor were cultured (Ultra CHO medium containing 1% fetal bovine serum and 200 μg/mL G418) in and harvested. Cells were collected by centrifugation and resulting cell pellets were frozen and stored at −70° C.
Membrane Receptor Preparation: Frozen cell pellets were weighed and resuspended in binding buffer to a final concentration of 30 mg wet weight/mL. Cell suspension for each pellet was homogenized using a Tempest homogenizer (setting=1; 5 strokes; VirTis, Gardiner, N.Y.). Cell homogenates were pooled and 35 mL aliquots were transferred to 50-mL polypropylene copolymer centrifuge tubes (Nalgene cat. #3110-0500). Tubes were spun at 12,000 rpm (SS34 rotor) for 12 min at 4° C. Resulting supernatant fractions were discarded and pellets were stored at −70° C. until use. On the day of the procedure, 35 mL binding buffer was added to each tube (35 mL membrane suspension was sufficient for three 96-well plates). The membrane pellet was dispersed by trituration using a pipet. The resulting suspension wass homogenized using a Tempest homogenizer (3 strokes at setting=1).
Receptor Binding Test procedure: Membrane homogenate (100 μl) was added to each well of a 96-well microtiter plate (Falcon # 3077). All reactions were tested in triplicate. Test compound solutions (50 μl) were added to the designated wells. Total bound counts were determined by adding 50 μl binding buffer containing 4% DMSO to the designated wells. […] Plates were pre-incubated for 15 min at room temperature on shaking platform (setting=3). After preincubation [^125I]FSH (50 μl) was added to each well and plates were incubated for 2 h at room temperature on shaking platform (setting=3). The reaction was terminated by transfer of the membrane preparation to glass fiber filters (Blue Mat #11740; 102×256 mm; Skatron Instruments, Sterling, Va.) that had been pretreated with 1% BSA in wash buffer for at least 30 min, but not longer than 1 h using a 96-well microtiter vacuum harvester (Skatron Instruments). The membrane preparation was washed with 5 cycles of ice-cold wash buffer (200 μl/well/cycle) followed by a pulse wash of 3 cycles (100 μl/well/cycle). The total wash volume per well was 1.3 mL. The filters were dried by a 10 sec aspiration. Disks corresponding to each well of the microtiter plate were punched out of the filter mat into 12×75 mm polypropylene tubes. The radioactivity present on each of the disks was measured using a gamma counter.
An FSH dose response curve (0.001, 0.01, 0.1, 1, 10, and 100 nM) was generated for each binding procedure to monitor procedure to procedrue variability.
FSH Receptor Radioligand Membrane Binding Procedure Buffers and Reagents
Binding buffer is prepared in 11 volumes containing Trizma-HCl, MgCl2, CaCl2 and sodium azide, the pH was adjusted to 7.2 with NaOH, and stored at 4° C. until use. BSA was weighed out on the day of the procedure and added to the amount of buffer required for the procedure (usually 150 mL). The protease inhibitors were prepared as 1 mg/mL stocks (aprotinin, leupeptin, and phosphoramidon were prepared in binding buffer without BSA and protease inhibitors; pepstatin and PMSF were prepared in methanol), stored in 1 mL aliquots at −70° C., and added to the binding buffer on the day of the procedure.
Wash buffer was prepared containing Trizma-HCl, MgCl2 and EDTA, the pH was adjusted to 7.2 with NaOH, and stored at 4° C.
Filter Soak Buffer (pH 7.2)
BSA was weighed out on the day of the procedure and added to 300 mL of wash buffer. The filter soak buffer was used for two procedures before being discarded.
A portion of the stock solution was diluted in binding buffer to a concentration of 200 pM.
FSH Solution for Determining Non-specific Binding: Purified human FSH was prepared as a 100 μM solution in binding buffer without protease inhibitors. […]

FSH receptor [2] = molecular target: T1, FSH receptor; assay: In Vitro Bio-test Procedure of Agonists and Antagonists to the FSH Receptor (cAMP accumulation in CHO-3D2 cells); format: cell-based; parameters: expressed in transfected cells; host or cells: CHO-3D2 cells
Method: In Vitro Bio-test Procedure of Agonists and Antagonists to the FSH Receptor
The compounds were subsequently diluted in sterile procedure medium (Optimem (Gibco/BRL, Grand Island, N.Y.)/0.1% BSA) prior to use in the bio-procedure.
Preparation of CHO-3D2 Cells; CHO-3D2 cells were plated into 96-well Nunc tissue culture plates at a density of 30,000 cells/well in DMEM/F12 medium (Gibco/BRL, Grand Island, N.Y.) supplemented with 5% Fetal Bovine Serum (Hyclone, Fetal Clone II), 2 mM L-glutamine and penicillin/streptomycin (100 U/mL). Cells were plated one day prior to performing the bio-procedure.
Procedure: On the day of procedure, the wells were washed two times with 100 ul/well of pre-warmed (37 deg C.) procedure medium. After aspirating the second wash, an additional 100 ul of procedure medium was added to each well and the cells pre-incubated for 30-45 minutes at 37 deg C. In a humidified incubator with 5%CO2/95% air. The cells were then challenged with varying dilutions of the test substance(s) in a 50 ul total incubation volume in procedure medium for 30 minutes at 37 deg C. in the humidified incubator. The challenge was terminated by the addition of 50 ul of 0.2 N HCl to each well. CAMP accumulation in the medium was measured by radioimmunoassay.
Test Groups: In the 96-well format, the plate is organized into 12 columns each containing 8 rows of wells. The plate was split in half to test a single compound in both agonist and antagonist mode on the same plate.
For agonist mode, compounds were tested using 5 different concentrations in a dose-response paradigm using one column as a control (challenge medium alone) in agonist mode.
The 96-well format allowed for the capability to test 4 columns of compound, using one of the remaining columns for negative control (challenge medium alone) and the other remaining column for ampositive control (ED20 of FSH alone).
The doses chosen to test each compound were extrapolated from the initial screening process (receptor binding data). Along with the test compounds, FSH was run in agonist mode using doses ranging from 0.1 ng/mL-1000 ng/mL as a postive control. Cytotoxicity of the compounds were screened by treating cells with the highest concentration of each compound used in the cAMP procedure for 30 minutes followed by washing of the cells 2 times with 100 ul PBS. The cells were then incubated for 5 min at 37 deg C. in the presence of 50 ug/mL Fluorescein diacetate and 20 ug/mL Propidium iodide in 100 ul PBS. The cells were washed two times with 100 ul PBS followed by examination of the cells under a fluorescence microscope using a 490 nm filter. Viable cells stained green throughout, while dead cells had red fluorescent nuclei.
Analysis of Results: cAMP accumulation was expressed as fmol/mL. […] Data were analyzed statistically by analysis of variance and significant differences between treatments and control determined by Dunnett's test. In antagonist mode, a Duncan's test was used.
Reference Compounds: Test compounds were compared to the effect of purified or recombinant human FSH.

Structure (SMILES)	IC50 (FSH receptor [1]) [µM]	IC50 (FSH receptor [2]) [µM]	IC50 (FSH receptor [2]; antagonist mode, inhibition of hFSH-induced cAMP accumulation (ED20 of FSH, […]), CHO-3D2 cells) [µM]
COc1ccc(C(=O)Nc2ccc(/C=C/c3ccc(NC(=O)c4ccc(OC)c(S(=O)(=O)NCCN5CCOCC5)c4)cc3S(=O)(=O)O)c(S(=O)(=O)O)c2)cc1S(=O)(=O)NCCN1CCOCC1 [Example 30n]	1.8	5.5	
COCCN(CCOC)S(=O)(=O)c1cc(C(=O)Nc2ccc(/C=C/c3ccc(NC(=O)c4ccc(OC)c(S(=O)(=O)N(CCOC)CCOC)c4)cc3S(=O)(=O)O)c(S(=O)(=O)O)c2)ccc1OC [Example 30o, 2,2′-[(E)-1,2-Ethenediyl]bis[5-[[3-[[bis(2-methoxyethyl)amino]sulfonyl]-4-methoxybenzoyl]amino]benzenesulfonic Acid]]	2.4	6.2	
COc1ccc(C(=O)Nc2ccc(CCc3ccc(NC(=O)c4ccc(OC)c(S(=O)(=O)N5CCOCC5)c4)cc3S(=O)(=O)O)c(S(=O)(=O)O)c2)cc1S(=O)(=O)N1CCOCC1 [Example 30p, 2,2′-(1,2-Ethanediyl)bis[5-[[4-methoxy-3-(4-morpholinylsulfonyl)benzoyl]amino]benzenesulfonic Acid]]	2.5	11	
C=CCS(=O)(=O)c1ccc(C(=O)Nc2ccc(/C=C/c3ccc(NC(=O)c4ccc(S(=O)(=O)CC=C)cc4)cc3S(=O)(=O)O)c(S(=O)(=O)O)c2)cc1 [Example 32a]	3.5	2.3	
CS(=O)(=O)c1ccc(C(=O)Nc2ccc(/C=C/c3ccc(NC(=O)c4ccc(S(C)(=O)=O)s4)cc3S(=O)(=O)O)c(S(=O)(=O)O)c2)s1 [Example 32b, 2,2′-[(E)-1,2-Ethenediyl]bis[5-[[[5-(methylsulfonyl)-2-thienyl]carbonyl]amino]benzenesulfonic Acid]]	3.2	2.6	
COC(=O)C=CCS(=O)(=O)c1cccc(C(=O)Nc2ccc(C=Cc3ccc(NC(=O)c4cccc(S(=O)(=O)CC=CC(=O)OC)c4)cc3S(=O)(=O)O)c(S(=O)(=O)O)c2)c1 [Example 32e, 4-{3-[4-(2-{4-{3-(3-Methoxycarbonyl-prop-2-ene-1-sulfonyl)-benzoylamino]-2-sulfo-phenyl}-vinyl)-3-sulfo-phenylcarbomoyl]-benzenesulfonyl}-but-2-enoic Acid, Methyl Ester]	4.9		9
CCSc1ccc(C(=O)Nc2ccc(/C=C/c3ccc(NC(=O)c4ccc(SCC)c(S(=O)(=O)N5CCOCC5)c4)cc3S(=O)(=O)O)c(S(=O)(=O)O)c2)cc1S(=O)(=O)N1CCOCC1 [Example 32i, 2,2′-[(E)-1,2-Ethenediyl]bis[5-[[4-(ethylthio)-3-(4-morpholinylsulfonyl)benzoyl]amino]benzenesulfonic Acid]]	3.7	4.9	
COCCOCCSc1ccc(C(=O)Nc2ccc(/C=C/c3ccc(NC(=O)c4ccc(SCCOCCOC)c(S(=O)(=O)N5CCOCC5)c4)cc3S(=O)(=O)O)c(S(=O)(=O)O)c2)cc1S(=O)(=O)N1CCOCC1 [Example 32o]	1.5	1	
CCN(CC)S(=O)(=O)c1cc(C(=O)Nc2ccc(/C=C/c3ccc(NC(=O)c4ccc(OC)c(S(=O)(=O)N(CC)CC)c4)cc3S(=O)(=O)O)c(S(=O)(=O)O)c2)ccc1OC [Example 33c, 2,2′-[(E)-1,2-Ethenediyl]bis[5-[[3-[(diethylamino)sulfonyl]-4-methoxybenzoyl]amino]benzenesulfonic Acid]]	6.2	4.5	
COc1ccc(C(=O)Nc2ccc(/C=C/c3ccc(NC(=O)c4ccc(OC)c(S(=O)(=O)N5CCCCCC5)c4)cc3S(=O)(=O)O)c(S(=O)(=O)O)c2)cc1S(=O)(=O)N1CCCCCC1 [Example 33f]	16	11	
COc1ccc(C(=O)Nc2ccc(Sc3ccc(NC(=O)c4ccc(OC)c(S(=O)(=O)N5CCOCC5)c4)cc3S(=O)(=O)O)c(S(=O)(=O)O)c2)cc1S(=O)(=O)N1CCOCC1 [Example 33h, 2,2′-Thiobis[5-[[4-methoxy-3-(4-morpholinylsulfonyl)benzoyl]amino]benzenesulfonic Acid]]	23	67	
O=C(O)C=CCS(=O)(=O)c1cccc(C(=O)Nc2ccc(C=Cc3ccc(NC(=O)c4cccc(S(=O)(=O)CC=CC(=O)O)c4)cc3S(=O)(=O)O)c(S(=O)(=O)O)c2)c1 [Example 36c, 4-{3-[4-(2-{4-[3-(3-Carboxy-prop-2-ene-1-sulfonyl)-benzoylamino]-2-sulfo-phenyl}-vinyl)-3-sulfo-phenylcarbomoyl]-benzenesulfonyl}-but-2-enoic Acid]	5.4	9.5	
